From ChEMBL document CHEMBL3885881, “DrugMatrix”

Species: Rattus norvegicus
Test: DrugMatrix - Regimen: Daily Repeat
Assay type: toxicity, organism-based, Sprague-Dawley
Design: regimen Daily Repeat, gender Male, age 6-8 weeks
Conditions: in vivo, po, route oral GAVAGE, […]; for ABSOLUTE BASOPHIL / ABSOLUTE EOSINOPHIL / ABSOLUTE LYMPHOCYTE / ABSOLUTE MONOCYTE / ABSOLUTE SEGMENTED NEUTROPHIL / BASOPHIL / EOSINOPHIL / ERYTHROCYTE COUNT / HEMATOCRIT / HEMOGLOBIN / LEUKOCYTE COUNT / LYMPHOCYTE / MEAN CORPUSCULAR HEMOGLOBIN / MEAN CORPUSCULAR HEMOGLOBIN CONCENTRATION / MEAN CORPUSCULAR VOLUME / MONOCYTE / NEUTROPHIL / NUCLEATED RED BLOOD CELLS / PLATELET COUNT: tissue Blood; for ALANINE AMINOTRANSFERASE / ALBUMIN / ALKALINE PHOSPHATASE / ASPARTATE AMINOTRANSFERASE / BLOOD UREA NITROGEN / CARBON DIOXIDE / CHLORIDE / CHOLESTEROL / CREATININE / GLUCOSE / LACTATE DEHYDROGENASE / LIPASE / PHOSPHORUS / POTASSIUM / SODIUM / TOTAL BILIRUBIN / TOTAL PROTEIN / URIC ACID: tissue Plasma
[1] = 250 mg/kg, 120 h, dose level Low, time 5 day
[2] = 500 mg/kg, 72 h, dose level High, time 3 day
[3] = 500 mg/kg, 120 h, dose level High, time 5 day

SMILES: CC(C)Cc1ccc(CC(=O)O)cc1 [IBUFENAC]
- ABSOLUTE BASOPHIL [1]: 0 CELLS/uL
- ABSOLUTE EOSINOPHIL [1]: 236.67 CELLS/uL
- ABSOLUTE LYMPHOCYTE [1]: 15018.67 CELLS/uL
- ABSOLUTE MONOCYTE [1]: 455.33 CELLS/uL
- ABSOLUTE SEGMENTED NEUTROPHIL [1]: 1489.33 CELLS/uL
- BASOPHIL [1]: 0%
- EOSINOPHIL [1]: 1.33%
- ERYTHROCYTE COUNT [1]: 5.48 x10E6/uL
- HEMATOCRIT [1]: 33.63%
- HEMOGLOBIN [1]: 12.33 G/DL
- LEUKOCYTE COUNT [1]: 17.2 x10E3/uL
- LYMPHOCYTE [1]: 87.33%
- MEAN CORPUSCULAR HEMOGLOBIN [1]: 22.5 pg
- MEAN CORPUSCULAR HEMOGLOBIN CONCENTRATION [1]: 36.67 G/DL
- MEAN CORPUSCULAR VOLUME [1]: 61.4 fL
- MONOCYTE [1]: 2.67%
- NEUTROPHIL [1]: 8.67%
- NUCLEATED RED BLOOD CELLS [1]: 0 /100WBC
- PLATELET COUNT [1]: 1124.33 x10E3/uL
- ALANINE AMINOTRANSFERASE [1]: 50 u/L
- ALBUMIN [1]: 4.2 G/DL
- ALKALINE PHOSPHATASE [1]: 391.33 u/L
- ASPARTATE AMINOTRANSFERASE [1]: 81 u/L
- BLOOD UREA NITROGEN [1]: 16 mg/dL
- CARBON DIOXIDE [1]: 28.33 mmol/L
- CHLORIDE [1]: 100.33 MEQ/L
- CHOLESTEROL [1]: 53.33 mg/dL
- CREATININE [1]: 0.16 mg/dL
- GLUCOSE [1]: 167.33 mg/dL
- LACTATE DEHYDROGENASE [1]: 230 u/L
- LIPASE [1]: 9 u/L
- PHOSPHORUS [1]: 12.77 mg/dL
- POTASSIUM [1]: 6.45 MEQ/L
- SODIUM [1]: 142.9 MEQ/L
- TOTAL BILIRUBIN [1]: 0.13 mg/dL
- TOTAL PROTEIN [1]: 6 G/DL
- URIC ACID [1]: 1.5 mg/dL
- ABSOLUTE BASOPHIL [2]: 0 CELLS/uL
- ABSOLUTE EOSINOPHIL [2]: 218.33 CELLS/uL
- ABSOLUTE LYMPHOCYTE [2]: 13655.67 CELLS/uL
- ABSOLUTE MONOCYTE [2]: 429.67 CELLS/uL
- ABSOLUTE SEGMENTED NEUTROPHIL [2]: 2263 CELLS/uL
- BASOPHIL [2]: 0%
- EOSINOPHIL [2]: 1.33%
- ERYTHROCYTE COUNT [2]: 5.57 x10E6/uL
- HEMATOCRIT [2]: 35.13%
- HEMOGLOBIN [2]: 12.77 G/DL
- LEUKOCYTE COUNT [2]: 16.57 x10E3/uL
- LYMPHOCYTE [2]: 82.67%
- MEAN CORPUSCULAR HEMOGLOBIN [2]: 22.97 pg
- MEAN CORPUSCULAR HEMOGLOBIN CONCENTRATION [2]: 36.33 G/DL
- MEAN CORPUSCULAR VOLUME [2]: 63.13 fL
- MONOCYTE [2]: 2.67%
- NEUTROPHIL [2]: 13.33%
- NUCLEATED RED BLOOD CELLS [2]: 0 /100WBC
- PLATELET COUNT [2]: 1113.33 x10E3/uL
- ALANINE AMINOTRANSFERASE [2]: 92.33 u/L
- ALBUMIN [2]: 4.4 G/DL
- ALKALINE PHOSPHATASE [2]: 526.33 u/L
- ASPARTATE AMINOTRANSFERASE [2]: 107.33 u/L
- BLOOD UREA NITROGEN [2]: 14 mg/dL
- CARBON DIOXIDE [2]: 27.33 mmol/L
- CHLORIDE [2]: 103.67 MEQ/L
- CHOLESTEROL [2]: 57 mg/dL
- CREATININE [2]: 0.24 mg/dL
- GLUCOSE [2]: 142.67 mg/dL
- LACTATE DEHYDROGENASE [2]: 159 u/L
- LIPASE [2]: 9.67 u/L
- PHOSPHORUS [2]: 12.2 mg/dL
- POTASSIUM [2]: 7.03 MEQ/L
- SODIUM [2]: 148.07 MEQ/L
- TOTAL BILIRUBIN [2]: 0.2 mg/dL
- TOTAL PROTEIN [2]: 5.93 G/DL
- URIC ACID [2]: 1.43 mg/dL
- ABSOLUTE BASOPHIL [3]: 0 CELLS/uL
- ABSOLUTE EOSINOPHIL [3]: 195.6 CELLS/uL
- ABSOLUTE LYMPHOCYTE [3]: 15442.4 CELLS/uL
- ABSOLUTE MONOCYTE [3]: 503.4 CELLS/uL
- ABSOLUTE SEGMENTED NEUTROPHIL [3]: 1838.6 CELLS/uL
- BASOPHIL [3]: 0%
- EOSINOPHIL [3]: 1%
- ERYTHROCYTE COUNT [3]: 5.64 x10E6/uL
- HEMATOCRIT [3]: 33.38%
- HEMOGLOBIN [3]: 12.04 G/DL
- LEUKOCYTE COUNT [3]: 17.98 x10E3/uL
- LYMPHOCYTE [3]: 86.6%
- MEAN CORPUSCULAR HEMOGLOBIN [3]: 21.36 pg
- MEAN CORPUSCULAR HEMOGLOBIN CONCENTRATION [3]: 36.1 G/DL
- MEAN CORPUSCULAR VOLUME [3]: 59.2 fL
- MONOCYTE [3]: 2.8%
- NEUTROPHIL [3]: 9.6%
- NUCLEATED RED BLOOD CELLS [3]: 0 /100WBC
- PLATELET COUNT [3]: 1278.6 x10E3/uL
- ALANINE AMINOTRANSFERASE [3]: 66 u/L
- ALBUMIN [3]: 4.06 G/DL
- ALKALINE PHOSPHATASE [3]: 384.8 u/L
- ASPARTATE AMINOTRANSFERASE [3]: 92.4 u/L
- BLOOD UREA NITROGEN [3]: 12.8 mg/dL
- CARBON DIOXIDE [3]: 25.8 mmol/L
- CHLORIDE [3]: 102.2 MEQ/L
- CHOLESTEROL [3]: 54.2 mg/dL
- CREATININE [3]: 0.16 mg/dL
- GLUCOSE [3]: 152.8 mg/dL
- LACTATE DEHYDROGENASE [3]: 132.4 u/L
- LIPASE [3]: 9 u/L
- PHOSPHORUS [3]: 12.02 mg/dL
- POTASSIUM [3]: 6.28 MEQ/L
- SODIUM [3]: 142.86 MEQ/L
- TOTAL BILIRUBIN [3]: 0.14 mg/dL
- TOTAL PROTEIN [3]: 5.54 G/DL
- URIC ACID [3]: 1.78 mg/dL
